Reference: PubChem BioAssay (NCI)
“And” between values parts separate entries of the source, which are not always exact repeats. Equal entries are not always repeated.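 Briefly, cells in 96-well plates were exposed to five compound concentrations for 48 h, and endpoints were estimated by linear interpolation. At the GI50, growth is halved. TGI: total growth inhibition.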

What was measured:
Experiment in all cases: NCI-60 cell line screen, 48 h
OVCAR-4 ovarian = tested on: OVCAR-4 ovarian
SW-620 colon = tested on: SW-620 colon
HCT-116 colon = tested on: HCT-116 colon
EKVX NSCLC = tested on: EKVX NSCLC
KM12 colon = tested on: KM12 colon
HS 578T breast = tested on: HS 578T breast
NCI-H460 lung = tested on: NCI-H460 lung
MDA-MB-435 = tested on: MDA-MB-435
HCC-2998 colon = tested on: HCC-2998 colon
SK-MEL-28 melanoma = tested on: SK-MEL-28 melanoma

Structure (SMILES)	TGI (OVCAR-4 ovarian)	TGI (SW-620 colon) [µM]	TGI (HCT-116 colon) [µM]	TGI (EKVX NSCLC)	TGI (KM12 colon)	TGI (HS 578T breast) [µM]	TGI (NCI-H460 lung)	TGI (MDA-MB-435)	TGI (HCC-2998 colon)	TGI (SK-MEL-28 melanoma)	GI50 (OVCAR-4 ovarian) [µM]	GI50 (SW-620 colon) [µM]	GI50 (HCT-116 colon) [µM]	GI50 (EKVX NSCLC) [µM]	GI50 (KM12 colon) [µM]	GI50 (NCI-H460 lung) [µM]	GI50 (HCC-2998 colon) [µM]	GI50 (SK-MEL-28 melanoma) [µM]	GI50 (HS 578T breast) [µM]
Cc1cc(C(C)(C)C)c(OCCCN2CCOCC2)c(C(C)(C)C)c1	31.5 µM	32.3	31.4	32.5 µM	36 µM	38.6	> 100 µM	38.2 µM	30.3 µM	30.5 µM	–	–	–	–	–	–	–	–	–
COC(=O)C1CC(C=O)=C(SC)N1 (stereo unspecified)	> 50 µM	> 50	> 50	> 50 µM	> 50 µM	> 50	> 50 µM	> 50 µM	> 50 µM	> 50 µM	–	–	–	–	–	–	–	–	–
Cc1ccc(Oc2cc(C)ccc2P(=O)(O)O)cc1	–	> 100	> 100	> 100 µM	> 100 µM	> 100	–	> 100 µM	> 100 µM	> 100 µM	–	–	–	–	–	–	–	–	–
C[N+](C)(C)c1nc(N)nc2c1ncn2C1OC(CO)C(O)C1O (stereo unspecified)	> 100 µM	> 100	> 100	> 100 µM	> 100 µM	> 100	> 100 µM	> 100 µM	> 100 µM	> 100 µM	–	–	–	–	–	–	–	–	–
O.O=[Se](=O)(O)O.[NH-]C1CCCCC1[NH-].[Pt+2] (stereo unspecified)	> 100 µM	> 100	> 100	> 100 µM	> 100 µM	–	38.7 µM	–	> 100 µM	> 100 µM	11.6	2.11	4.36	36.1	47.2	3.77	> 46.1	10.1	–
Nc1ncnc2c(C3OC(CO)C(O)C3O)c[nH]c12 (stereo unspecified)	0.705 µM and 0.741 µM	–	0.16	0.415 µM and 0.274 µM	0.396 µM and 0.465 µM	–	0.048 µM and 0.0128 µM	0.182 µM and 0.125 µM	0.247 µM and 0.343 µM	0.51 µM and 0.734 µM	–	–	–	< 0.0171	–	–	–	0.0452	0.0247
Cc1ccc2c(=O)c3c(O)c4c(cc3n(C)c2c1)OC(C)(C)C=C4	> 10 µM	> 10	> 10	> 10 µM	> 10 µM	> 10	> 10 µM	> 10 µM	> 10 µM	> 10 µM	–	–	–	–	–	–	–	–	–
O=C(NC(Cc1c[nH]c2ccccc12)C(=O)O)/C(=C/c1ccccc1)NC(=O)c1ccccc1 (stereo unspecified)	> 100 µM	> 100	> 100	> 100 µM	> 100 µM	> 100	> 100 µM	> 100 µM	> 100 µM	> 100 µM	–	–	–	–	–	–	–	–	–
COc1ccc(/C=C(\C#N)c2nc(-c3cc4ccccc4oc3=O)cs2)cc1	58.8 µM	66.8	> 100	> 100 µM	> 100 µM	> 100	57.1 µM	> 100 µM	> 100 µM	> 100 µM	–	–	–	–	–	–	–	–	–
CC1=NN(C(=O)Cc2ccccc2)C(=O)/C1=C\c1cccc(O)c1	> 100 µM	> 100	> 100	> 100 µM	> 100 µM	–	> 100 µM	–	> 100 µM	> 100 µM	–	–	–	–	–	–	–	–	–
Cc1cc(Br)cc(C)c1NC(=O)C(=O)C(C(=O)c1ccc(Cl)c(Cl)c1)C1OC(=O)c2ccccc21 (stereo unspecified)	> 100 µM	> 100	> 100	> 100 µM	> 100 µM	–	> 100 µM	–	> 100 µM	–	–	–	–	–	–	–	–	–	–
Cc1cc2nnn(C3CCCO3)c2cc1C (stereo unspecified)	–	–	> 100	> 100 µM	–	> 100	> 100 µM	> 100 µM	> 100 µM	–	–	–	–	–	–	–	–	–	–
CCCNC(=O)Cn1c(-c2ccccc2)cc2ccccc21	> 100 µM	> 100	70.4	> 100 µM	> 100 µM	> 100	> 100 µM	> 100 µM	> 100 µM	> 100 µM	–	–	–	–	–	–	–	–	–
CN1C(C(=O)Nc2ccccn2)=C(O)c2ccccc2S1(=O)=O	> 100 µM	> 100	> 100	> 100 µM	> 100 µM	–	–	> 100 µM	–	> 100 µM	–	–	–	–	–	–	–	–	–
CC(=O)Oc1ccc(-c2c(OC(C)=O)c(OC(C)=O)c(-c3ccc(OC(C)=O)c(OC(C)=O)c3)c(OC(C)=O)c2OC(C)=O)cc1	31.8 µM	38.6	40.2	20.2 µM	28.1 µM	–	> 100 µM	31.7 µM	–	28.4 µM	–	–	–	–	–	–	–	–	–
Clc1cccc(Cl)c1C1ON=C(c2ccccc2)N1C12CC3CC(CC(C3)C1)C2 (stereo unspecified)	> 100 µM	–	59.9	> 100 µM	30.8 µM	87.2	> 100 µM	> 100 µM	> 100 µM	> 100 µM	–	–	–	–	–	–	–	–	–
COc1ccc(CNc2cnc3cc(N)ccc3n2)cc1OC	> 100 µM	> 100	> 100	> 100 µM	> 100 µM	–	> 100 µM	–	> 100 µM	> 100 µM	–	–	–	–	–	–	–	–	–
CN(NC(=O)/C(=C/C=C/c1ccccc1)NC(=O)c1ccccc1)C1=C(Cl)C(=O)[N+](c2ccccc2)=CC1	64 µM	33.8	45.7	> 100 µM	34 µM	> 100	> 100 µM	32.9 µM	–	37.1 µM	–	–	–	–	–	–	–	–	–
Cn1cnc([N+](=O)[O-])c1Sc1nncc2[nH]cnc12	> 100 µM	> 100	> 100	> 100 µM	> 100 µM	–	–	> 100 µM	> 100 µM	> 100 µM	–	–	–	–	–	–	–	–	–
COc1ccc(/C(Cl)=C(\C=O)c2ccc(Cl)cc2)cc1	> 100 µM	> 100	20.8	> 100 µM	–	–	> 100 µM	–	> 100 µM	–	–	–	–	–	–	–	–	–	–
COc1cccc2c1C(=O)c1c(O)c3c(c(O)c1C2=O)C[C@](O)(C(=O)CO)CC3OC1CC(N)C(OC2CCCCO2)C(C)O1 (stereo partly specified)	4.2 µM	6.48	2.49	3.43 µM	–	–	0.208 µM	–	3.25 µM	3.38 µM	–	–	–	–	–	–	–	–	–
O=c1oc2ccccc2cc1-c1nc2ccccc2s1	29 µM	34.8	–	39.2 µM	> 54.3 µM	20.4	53 µM	18.1 µM	> 100 µM	> 66 µM	–	–	–	–	–	–	–	–	–
CCOC(=O)Cn1c(C)nc2nn(Cc3ccccc3)cc2c1=O	–	> 100	> 100	> 100 µM	> 100 µM	> 100	> 100 µM	> 100 µM	> 100 µM	> 100 µM	–	–	–	–	–	–	–	–	–
